Experimental data: patent US20230348465A1, “IBOGAINE ANALOGS AS THERAPEUTICS FOR NEUROLOGICAL AND PSYCHIATRIC DISORDERS” (The Trustees of Columbia University in the City of New York, priority 2020, published 2023)
Like-named read-outs stand apart in the source and are kept apart here.

Key:
rVMAT2 = biological target: T1, rVMAT2 (Rattus norvegicus, UniProt Q01827); test: rVMAT2 screening assay: inhibition of uptake of the fluorescent substrate FFN206 in stably transfected rVMAT2-HEK cells; format: cell-based; settings: for IC50: rVMAT2-HEK cells, FFN206 0.75 µM, mean ± SEM, n ≥ 4, read-out: VMAT2 IC50; for Ki: read-out: VMAT2 Ki
T1 construct: expressed in transfected cells; host or cells: HEK cells, stably transfected (rVMAT2-HEK)
T1 sequence (Q01827 whole entry): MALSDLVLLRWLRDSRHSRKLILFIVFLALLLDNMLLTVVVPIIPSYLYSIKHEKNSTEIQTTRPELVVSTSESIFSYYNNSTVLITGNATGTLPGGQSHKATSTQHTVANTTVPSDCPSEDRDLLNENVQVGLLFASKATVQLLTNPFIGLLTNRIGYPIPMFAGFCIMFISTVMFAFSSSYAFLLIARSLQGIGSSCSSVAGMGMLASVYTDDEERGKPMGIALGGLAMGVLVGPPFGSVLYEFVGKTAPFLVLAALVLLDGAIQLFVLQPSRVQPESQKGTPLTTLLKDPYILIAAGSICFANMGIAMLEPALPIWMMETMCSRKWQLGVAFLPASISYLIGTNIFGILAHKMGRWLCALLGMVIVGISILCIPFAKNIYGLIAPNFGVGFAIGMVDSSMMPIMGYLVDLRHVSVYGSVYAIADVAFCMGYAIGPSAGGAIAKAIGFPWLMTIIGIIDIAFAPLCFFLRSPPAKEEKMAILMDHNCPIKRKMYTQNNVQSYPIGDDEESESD
Description: (§1) Stably transfected hSERT-HEK and rVMAT2-HEK cellular cultures were maintained in Dulbecco’s Minimal Essential Medium (DMEM) with GlutaMAX (Gibco) with the following additions: 10% (v/v) Fetal Bovine Serum (FBS, Atlanta Biologicals), 100 U/mL Penicillin, and 10 µg/mL Streptomycin (Gibco). With regards to the former cell lineage, an additional ingredient, 500 µg/mLGeneticin (G418) (Sigma) was included to preserve the respective transgene.
(§2) For both hSERT and rVMAT2 screening experiments, respective singly transfected cells were seeded at a density of 0.09 × 10^6 cells/well in poly-D-Lysine (Sigma) coated white solid-bottom 96-well plates. Growth was permitted for approximately 44 hours in said aqueous media and at an incubation environment of 37° C. and 5% Carbon Dioxide. At the beginning of the experiment, the cellular growth solution was aspirated, and individual cells were rinsed with 150 µL of 1× Dulbecco’s Phosphate Buffered Saline (PBS; HyClone). 63 µL of Experimental Media (consisting of the following contents: DMEM without phenol red but with 4.5 g/L of D-Glucose (Gibco), 1 % (v/v) FBS (Atlanta Biologicals), 100 U/mL Penicillin, and 10 µg/mLStreptomycin (Gibco)) with 2 × tiered concentrations of inhibitor (or DMSO, the vehicle of these experiments) were added to the respective wells. […] After a required incubation period of 30 minutes for proper fluorescent probe uptake, the contents of each well were aspirated and consequently, rinsed twice with 120 µL of PBS. A final solution of 120 µL of PBS is finally added to all corresponding wells for cell maintenance before undergoing fluorescence uptake reading by a BioTek H1MF plate reader.
(§3) Numerical analysis of the collected experimental data preceded as accordingly. Respective inhibitor values were first subtracted from vehicular values to quantify the respective fluorescence uptake. This metric was then analyzed using the dose-response-inhibitor nonlinear curve fitting model ([inhibitor] vs response (three parameters)) as supplied by GraphPad Prism 6 software. For each inhibitor, the model supplied a respective IC50 ± SEM value (Table 1).

hSERT = biological target: T2, hSERT (Homo sapiens, UniProt P31645); test: hSERT screening assay: inhibition of uptake of the fluorescent substrate APP+ in stably transfected hSERT-HEK cells; format: cell-based; settings: for Ki: Cheng-Prusoff from IC50, Km (APP+) = 1.6 µM, read-out: SERT Ki; for IC50: hSERT-HEK cells, APP+ 1.1 µM, mean ± SEM, n ≥ 4, read-out: SERT IC50
T2 construct: expressed in transfected cells; host or cells: HEK cells, stably transfected (hSERT-HEK), kept under G418
T2 sequence (P31645 whole entry): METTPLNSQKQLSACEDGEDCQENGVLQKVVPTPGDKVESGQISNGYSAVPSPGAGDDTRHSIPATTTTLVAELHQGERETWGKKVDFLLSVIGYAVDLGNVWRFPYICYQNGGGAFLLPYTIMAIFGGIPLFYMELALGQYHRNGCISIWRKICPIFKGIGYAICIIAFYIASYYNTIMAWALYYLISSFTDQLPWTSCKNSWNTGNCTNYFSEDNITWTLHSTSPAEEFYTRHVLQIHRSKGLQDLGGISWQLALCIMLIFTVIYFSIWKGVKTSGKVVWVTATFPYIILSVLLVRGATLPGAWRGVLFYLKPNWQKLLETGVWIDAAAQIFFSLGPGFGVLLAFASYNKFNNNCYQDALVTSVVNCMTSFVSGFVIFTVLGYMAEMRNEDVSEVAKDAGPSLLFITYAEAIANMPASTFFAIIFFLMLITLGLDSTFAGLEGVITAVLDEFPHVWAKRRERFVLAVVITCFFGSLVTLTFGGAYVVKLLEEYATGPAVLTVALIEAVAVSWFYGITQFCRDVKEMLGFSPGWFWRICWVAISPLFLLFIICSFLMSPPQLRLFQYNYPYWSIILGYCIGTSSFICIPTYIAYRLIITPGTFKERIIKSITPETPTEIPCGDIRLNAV
Description: as §1, §2, §3

[1] = ratio of potency to noribogaine

Structure (SMILES)	IC50 (rVMAT2) [nM]	IC50 (hSERT) [nM]	further results
CCC1CC2CC3c4c(c5cc(O)ccc5n4C)CCN(C2)C13 (centres unmarked) [Compound 8, N-methyl-noribogaine]	170 ± 30	59 ± 11	times more potent than noribogaine at VMAT2 (rVMAT2; [1]): approximately 3.4; Ki (rVMAT2): 100 ± 20 nM; Ki (hSERT): 35 ± 6.7 nM; times more potent than noribogaine at SERT (hSERT; [1]): approximately 4.7
CCC1CC2CC3c4[nH]c5ccc(C(N)=O)cc5c4CCN(C2)C13 (centres unmarked) [Compound 2, Ibogamine-10-carboxamide]	3000 ± 570	2500 ± 290	–
CC[C@H]1C[C@H]2C[C@H]3c4[nH]c5ccc(O)cc5c4CCN(C2)[C@@H]13 [Noribogaine, reference compound]	570 ± 80	–	Ki (rVMAT2; Cheng-Prusoff from IC50, Km (FFN206) = […]): 350 ± 40 nM; SERT inhibition, result in words (hSERT): potent SERT inhibitor
CCOc1ccc2c(c1)c1c(n2C)C2CC3CC(CC)C2N(CC1)C3 (centres unmarked) [Compound 14, N-methyl-10-ethoxy-ibogamine]	–	2800 ± 380	–
CCC1CC2CC3c4[nH]c5ccc(OC)c(Cl)c5c4CCN(C2)C13 (centres unmarked) [Compound 19, 9-Chloro-ibogaine]	18000 ± 5900	1200 ± 120	–
CCC1CC2CC3c4[nH]c5ccccc5c4CCN(C2)C13 (centres unmarked) [Compound 5, Ibogamine]	3000 ± 550	330 ± 40	times weaker than noribogaine at VMAT2 (rVMAT2; [1]): approximately 5.3; Ki (rVMAT2): 1800 ± 340 nM; Ki (hSERT): 200 ± 20 nM
CCC1CC2CC3c4c(c5cc(OC)ccc5n4C)CCN(C2)C13 (centres unmarked) [Compound 7, N-methyl-ibogaine]	740 ± 110	1500 ± 130	–
CCC1CC2CC3c4[nH]c5ccc(C#N)cc5c4CCN(C2)C13 (centres unmarked) [Compound 3, Ibogamine-10-carbonitrile]	3300 ± 430	26 ± 3.8	–
